# Measurements taken from PMC7363588, “Mapping of the FGF14:Nav1.6 complex interface reveals FLPK as a functionally active peptide modulating excitability” (Physiological Reports, 2020).
# Entries after “also recorded” stand apart in the source; their conditions may differ. Marks after values point to notes of the source that are not given here. Peptide text beside a SMILES is read from it.
# System: Nav1.6 in the presence of FGF14-ΔNT-GFP
# Experiment: Whole-cell patch-clamp, HEK-Nav1.6 cells expressing FGF14-ΔNT-GFP
# Format: cell-based, human
# Details: 50 μM FLPK
# Excerpt: Plasmids used in this study derived from the following clones: human FGF14‐1b isoform (accession number: NM_175929.2) and human Nav1.6 (accession number: NM_014191.3). The CLuc‐FGF14, CD4‐Nav1.6‐NLuc, constructs and the pcDNA3.1 vector (Invitrogen, Carlsbad, CA) were engineered and characterized as previously described (Goetz et al., 2009; Shavkunov et al., 2012,2013,2015; Ali et al., 2016, 2018; Wadsworth et al., 2019). The plasmid pGL3 expressing full length Firefly (Photinus pyralis) luciferase was a gift from Dr. P. Sarkar (Department of Neurology, UTMB). For protein purification studies, cDNAs encoding FGF14‐1b (accession number NP_787125; aa 64–252) or the C‐terminal tail of Nav1.6 (accession number #NP_001171455; aa 1756–1939) were subcloned into suitable pET bacterial expression vectors (pET28a‐FGF14; pET30a‐Nav1.6) with a 6X His‐tag at the N‐terminal site; these plasmids were a gift of Dr. Moosa Mohammadi (NYU, Langone Medical Center). The mutation coding for FGF14^V160A was generated by site‐directed mutagenesis and PCR using FGF14‐1b as a template described previously (Ali et al., 2016). For electrophysiological studies FGF14‐GFP (human) and FGF14‐ΔNT‐GFP (human) were cloned into the GFP plasmid (pQBI‐fC2; Quantum Biotechnology Inc., Montreal, Canada) as previously described.
# HEK293 cells were maintained in DMEM and F‐12 (Invitrogen, Carlsbad, CA), supplemented with 0.05% glucose, 0.5 mM pyruvate, 10% fetal bovine serum, 100 units/ml penicillin, and 100 µg/ml streptomycin (Invitrogen), and incubated at 37 °C with 5% CO2. HEK293 cells stably expressing the human Nav1.6 channel (hereafter referred to as HEK‐Nav1.6 cells) were maintained similarly except for the addition of 500 μg/ml G418 (Invitrogen) to maintain stable Nav1.6 expression. Cells were transfected at 80%–90% confluence with equal amount (1 μg each) of plasmid pairs using Lipofectamine 2000 (Invitrogen) according to manufacturer's instructions. HEK‐Nav1.6 cells were washed and replated at very low density prior to electrophysiological recordings (Ali et al., 2016, 2018; Scala et al., 2018; Wadsworth et al., 2019).
# HEK‐Nav1.6 cells transfected with GFP or FGF14‐GFP were plated at low density on glass cover slips for 3–4 hr and subsequently transferred to the recording chamber. Recordings were performed at room temperature (20–22°C) 24 hr posttransfection using a MultiClamp 700B amplifier (Molecular Devices, Sunnyvale, CA). The composition of recording solutions consisted of the following salts; extracellular (mM): 140 NaCl, 3 KCl, 1 MgCl2, 1 CaCl2, 10 HEPES, 10 glucose, pH 7.3; intracellular (mM): 130 CH3O3SCs, 1 EGTA, 10 NaCl, 10 HEPES, pH 7.3. Membrane capacitance and series resistance were estimated by the dial settings on the amplifier and compensated for electronically by 70%–75%. Data were acquired at 20 kHz and filtered at 5 kHz prior to digitization and storage. All experimental parameters were controlled by Clampex 9.2 software (Molecular Devices) and interfaced to the electrophysiological equipment using a Digidata 1,200 analog‐digital interface (Molecular Devices). Voltage‐dependent inward currents for HEK‐Nav1.6 cells were evoked by depolarization to test potentials between −100 mV and +60 mV from a holding potential of −70 mV followed by a voltage prestep pulse of −120 mV (Nav1.6). Steady‐state (fast) inactivation of Nav channels was measured with a paired‐pulse protocol. From the holding potential, cells were stepped to varying test potentials between −120 mV (Nav1.6) and +20 mV (prepulse) prior to a test pulse to −20 mV.
# Current densities were obtained by dividing Na^+ current (INa) amplitude by membrane capacitance. Current–voltage relationships were generated by plotting current density as a function of the […]. Conductance (GNa) was calculated by the following equation: GNa=INa/Vm‐Erev where INa ^+ is the current amplitude at voltage Vm, and Erev is the Na^+ reversal potential. […]
smiles,measurement,setting,value
CC(=O)N[C@@H](Cc1ccccc1)C(=O)N[C@@H](CC(C)C)C(=O)N1CCC[C@H]1C(=O)N[C@@H](CCCCN)C(N)=O [FLPK] (Ac-FLPK-NH2),effect on Nav1.6 currents in absence of FGF14 N-terminal domain,FGF14-ΔNT-GFP,insensitive to FLPK; also recorded: no effects on any other parameters associated with FGF14‐GFP regulation; also recorded: unaffected by FLPK
same,"Tau (τ), decay time constant of I Na","ΔNT-FGF14-GFP, at −10 mV, mean ± SEM (n = 11), DMSO 1.091 ± 0.07",1.137 ± 0.08 (11) ms
same,Kact,"ΔNT-FGF14-GFP, mean ± SEM (n = 11), DMSO 4.61 ± 0.3",1.63 ± 0.23 (11) mV
same,Kinact,"ΔNT-FGF14-GFP, mean ± SEM (n = 11), DMSO 6.4 ± 0.44",6.75 ± 0.32 (11) mV
same,Activation (V1/2),"ΔNT-FGF14-GFP, mean ± SEM (n = 11), DMSO –21.2 ± 0.36, p < .001","–37.43 ± 0.3 (11) ^ l , ^ o,p,q mV"
same,Steady-state Inactivation (V1/2),"ΔNT-FGF14-GFP, mean ± SEM (n = 11), DMSO –70.2 ± 0.53","–68.3 ± 0.34 (11) ^o,p,q mV"
